Data from ChEMBL document CHEMBL1129076 (J Med Chem, 1996).

What was measured:
[1] = target: T1, Vanilloid receptor (Rattus norvegicus, UniProt Q9ERZ8+Q9WUD2+O35433); test: Calcium +2 uptake into Dorsal Root Ganglion(DRG) neurons; type: functional, tissue-based
[2] = target: Transient receptor potential cation channel subfamily V member 1 (Rattus norvegicus) (UniProt O35433); test: Relative potency(RTX) against Dorsal Root Ganglion (DRG) membranes using RTX binding assay.; type: functional, tissue-based
[3] = target: T1, Vanilloid receptor; test: Ability to stimulate uptake of Calcium into Dorsal Root Ganglion(DRG) neurons; type: functional, tissue-based
[4] = target: Transient receptor potential cation channel subfamily V member 1 (Rattus norvegicus, UniProt O35433); test: Binding affinity against Vanilloid receptor in dorsal Root Ganglion (DRG) membranes using [3H]RTX binding assay.; type: tissue-based
[5] = target: Transient receptor potential cation channel subfamily V member 1 (Rattus norvegicus) (UniProt O35433); test: Binding affinity against Vanilloid receptor in dorsal root ganglion (DRG) membranes relative to resinferatoxin (RTX); not tested; type: tissue-based
[6] = target: Transient receptor potential cation channel subfamily V member 1 (Rattus norvegicus) (UniProt O35433); test: Relative potency against RTX binding to Dorsal Root Ganglion (DRG) membranes; type: functional, tissue-based

Transient receptor potential cation channel subfamily V member 1 (Rattus norvegicus), sequence (O35433 whole entry): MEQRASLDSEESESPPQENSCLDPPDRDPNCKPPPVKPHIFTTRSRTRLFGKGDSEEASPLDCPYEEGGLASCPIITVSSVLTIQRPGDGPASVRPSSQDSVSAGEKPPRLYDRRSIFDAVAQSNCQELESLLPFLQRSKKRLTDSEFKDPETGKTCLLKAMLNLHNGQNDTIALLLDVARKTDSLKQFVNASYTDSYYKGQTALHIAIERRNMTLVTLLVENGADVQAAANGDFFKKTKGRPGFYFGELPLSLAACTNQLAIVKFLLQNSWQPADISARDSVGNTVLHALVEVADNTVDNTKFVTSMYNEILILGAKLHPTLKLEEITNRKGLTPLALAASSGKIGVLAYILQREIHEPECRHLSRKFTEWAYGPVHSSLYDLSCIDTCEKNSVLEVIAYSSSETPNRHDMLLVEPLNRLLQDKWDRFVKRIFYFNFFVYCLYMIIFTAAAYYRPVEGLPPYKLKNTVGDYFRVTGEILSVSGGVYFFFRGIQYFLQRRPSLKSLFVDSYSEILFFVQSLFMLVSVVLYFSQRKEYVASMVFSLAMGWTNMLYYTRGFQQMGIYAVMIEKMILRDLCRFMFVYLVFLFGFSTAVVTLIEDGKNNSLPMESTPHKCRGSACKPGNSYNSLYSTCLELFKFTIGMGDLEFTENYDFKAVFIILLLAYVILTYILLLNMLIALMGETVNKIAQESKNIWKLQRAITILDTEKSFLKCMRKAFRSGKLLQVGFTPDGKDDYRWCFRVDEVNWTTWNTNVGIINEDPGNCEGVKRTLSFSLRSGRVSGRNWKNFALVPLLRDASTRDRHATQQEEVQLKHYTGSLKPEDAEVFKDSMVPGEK
Transient receptor potential cation channel subfamily V member 1, sequence (O35433 whole entry): as above

SMILES	EC50 [1]	Relative Potency [2]	EC50 [3]	Ki [4]	Relative affinity [5]	Relative Potency [6]
C=C(C)[C@@]12C[C@@H](C)C34OC(Cc5ccccc5)(OC1[C@@H]3C=C(COC(C)=O)C[C@]1(O)C(=O)C(C)=C[C@@H]41)O2 (stereo partly drawn)	> 2000 nM	–	–	–	–	–
C=C(C)[C@@]12C[C@@H](C)C34OC(Cc5ccccc5)(OC1[C@@H]3C=C(COC(=O)Cc1cccc(OC)c1)C[C@]1(O)C(=O)C(C)=C[C@@H]41)O2 (stereo partly drawn)	7.89 nM	–	–	–	–	–
CCCCCCCCC(=O)NCc1ccc(OCCN)c(OC)c1	410 nM	–	–	–	–	–
CCCCCCCCC(=O)NCc1cccc(OC)c1	> 100000 nM	–	–	–	–	–
CCCCCCCCC(=O)NCc1ccc(OC)c(OC)c1	> 6410 nM	–	–	–	–	–
C=C(C)[C@@]12C[C@@H](C)C34OC(Cc5ccccc5)(OC1[C@@H]3C=C(CNC(=O)Cc1ccc(O)c(OC)c1)C[C@]1(O)C(=O)C(C)=C[C@@H]41)O2 (stereo partly drawn)	–	0.013	122 nM	10.6 nM	0.011	–
COc1cc(CC(=O)OC/C=C/[C@H]2[C@H]3OC4(Cc5ccccc5)O[C@H]3CC[C@H]2O4)ccc1O	9150 nM	–	–	–	–	–
C=C(C)[C@@]12C[C@@H](C)C34OC(C)(OC1[C@@H]3C=C(COC(=O)Cc1ccc(O)c(OC)c1)C[C@]1(O)C(=O)C(C)=C[C@@H]41)O2 (stereo partly drawn)	–	0.122	13.2 nM	3.2 nM	0.038	–
COc1cc(CC(=O)OCC2=C[C@H]3[C@@H]4C(C)(C)[C@]4(OC(C)=O)C(OC(C)=O)[C@@H](C)C3(O)[C@@H]3C=C(C)C(=O)[C@@]3(OC)C2)ccc1O (stereo partly drawn)	8510 nM	–	–	–	–	–
C=C(C)[C@@]12C[C@@H](C)C34OC(Cc5ccccc5)(OC1[C@@H]3C=C(COC(=O)Cc1ccc(OC)c(N=[N+]=[N-])c1)C[C@]1(O)C(=O)C(C)=C[C@@H]41)O2 (stereo partly drawn)	10.64 nM	–	–	–	–	–
C=C(C)[C@@]12C[C@@H](C)C34OC(c5ccccc5)(OC1[C@@H]3C=C(COC(=O)Cc1ccc(O)c(OC)c1)C[C@]1(O)C(=O)C(C)=C[C@@H]41)O2 (stereo partly drawn)	–	0.21	7.6 nM	0.17 nM	0.706	–
C=C(C)C12C[C@@H](C)C34OC(Cc5ccccc5)(OC1[C@@H]3C=C(COC(=O)Cc1ccc(OCCN)c(OC)c1)C[C@]1(O)C(=O)C(C)=CC41)O2 (single isomer, unassigned)	–	0.123	13.04 nM	4.3 nM	0.028	–
C=C(C)C12C[C@@H](C)C34OC(Cc5ccccc5)(OC1[C@@H]3C=C(COC(=O)Cc1ccccc1)C[C@]1(O)C(=O)C(C)=CC41)O2 (single isomer, unassigned)	10.22 nM	–	10.22 nM	8.3 nM	0.015	0.157
C=C(C)C12C[C@@H](C)C34OC(Cc5ccccc5)(OC1[C@@H]3C=C(COC(=O)Cc1ccc(OC)c(OC)c1)C[C@]1(O)C(=O)C(C)=CC41)O2 (single isomer, unassigned)	–	0.107	14.89 nM	1 nM	0.12	–
C=C(C)C12C[C@@H](C)C34OC(Cc5ccccc5)(OC1[C@@H]3C=C(COC(=O)Cc1ccc(O)c(OC)c1)C[C@]1(OC)C(=O)C(C)=C[C@@H]41)O2 (single isomer, unassigned)	5.3 nM	–	–	–	–	–
C=C(C)C12C[C@@H](C)C34OC(Cc5ccccc5)(OC1[C@@H]3C=C(CO)C[C@]1(O)C(=O)C(C)=CC41)O2 (single isomer, unassigned)	–	< 8e-05	> 20000 nM	> 10000 nM	< 1e-05	–
CCCCCCCCC(=O)NCc1ccc(O)c(OC)c1 [NONIVAMIDE]	> 550 nM	–	–	–	–	–
C=C(C)[C@]12C[C@@H](C)[C@@]34O[C@](Cc5ccccc5)(O[C@@H]1[C@@H]3C=C(COC(=O)Cc1ccc(O)c(OC)c1)C[C@]1(O)C(=O)C(C)=C[C@@H]41)O2 [RESINIFERATOXIN]	–	1	1.6 nM	0.12 nM	1	–
